Results on 9 molecules are retold here after ChEMBL document CHEMBL4622966, “Synthesis of Novel Ciprofloxacin-Based Hybrid Molecules toward Potent Antimalarial Activity” (ACS Med Chem Lett, 2020).

Broadly, the logP is the decadic logarithm of the partition coefficient of the neutral form, usually between octanol and water. A high value points to a more lipophilic compound. What is called IC50 is the midpoint of a concentration-inhibition curve.

For series [1], the system named is Erythrocyte. The series is described as follows: Hemolytic activity against uninfected human RBC at 10 to 45 uM. The class given is ADME, cell-based.
A short description of series [2]: Lipophilicity, log P of the compound. The class given is physicochemical. The note with it: octanol/water.
For series [3], the system named is Plasmodium falciparum. The series is described as follows: Potency index, ratio of chloroquine IC50 to test compound IC50 for antimalarial activity against CQ-resistant Plasmodium falciparum W2 infected in human erythrocytes after 48 hrs by SYBR Green1 dye based fluorescence assay. The class given is functional.
For series [4], the system named is Plasmodium falciparum. The series is described as follows: Antimalarial activity against CQ-sensitive Plasmodium falciparum 3D7 infected in human erythrocytes after 48 hrs by SYBR Green1 dye based fluorescence assay. Type of series: functional, organism-based. The note with it: 3D7, 48 h.
Series [5] has as its system Plasmodium falciparum. Kind of series: Potency index, ratio of ciprofloxacin IC50 to test compound IC50 for antimalarial activity against CQ-sensitive Plasmodium falciparum 3D7 infected in human erythrocytes after 48 hrs by SYBR Green1 dye based fluorescence assay. Type of series: functional.
Series [6] deals with Plasmodium falciparum. The series is described as follows: Antimalarial activity against CQ-resistant Plasmodium falciparum W2 infected in human erythrocytes after 48 hrs by SYBR Green1 dye based fluorescence assay. Type of series: functional, organism-based. The note with it: W2, 48 h.
Series [7] has as its system Plasmodium falciparum. The series is described as follows: Antimalarial activity against CQ-sensitive Plasmodium falciparum 3D7 infected in human erythrocytes after 96 hrs by SYBR Green1 dye based fluorescence assay. The class given is functional, organism-based. The note with it: 3D7, 96 h.
The test system of series [8] is Erythrocyte. The series is described as follows: Hemolytic activity against human RBC infected with CQ-sensitive Plasmodium falciparum 3D7 at 10 to 45 uM. Type of series: ADME, cell-based.
Series [9] relates to Plasmodium falciparum. The series is described as follows: Potency index, ratio of ciprofloxacin IC50 to test compound IC50 for antimalarial activity against CQ-resistant Plasmodium falciparum W2 infected in human erythrocytes after 96 hrs by SYBR Green1 dye based fluorescence assay. Type of series: functional.
Series [10] concerns Plasmodium falciparum. The series is described as follows: Resistance index, ratio of IC50 for antimalarial activity against CQ-resistant Plasmodium falciparum W2 infected in human erythrocytes after 48 hrs to IC50 for antimalarial activity against CQ-sensitive Plasmodium falciparum 3D7 infected in human erythrocytes after 48 hrs by SYBR Green1 dye based fluorescence assay. The class given is functional.

For series [11], the system named is Erythrocyte. Kind of series: Hemolytic activity against human RBC infected with CQ-resistant Plasmodium falciparum W2 at 10 to 45 uM. The class given is ADME, cell-based.
The test system of series [12] is Plasmodium falciparum. Kind of series: Potency index, ratio of ciprofloxacin IC50 to test compound IC50 for antimalarial activity against CQ-resistant Plasmodium falciparum W2 infected in human erythrocytes after 48 hrs by SYBR Green1 dye based fluorescence assay. Type of series: functional.
The subject of series [13] is Plasmodium falciparum. The series is described as follows: Potency index, ratio of ciprofloxacin IC50 to test compound IC50 for antimalarial activity against CQ-sensitive Plasmodium falciparum 3D7 infected in human erythrocytes after 96 hrs by SYBR Green1 dye based fluorescence assay. Type of series: functional.
Series [14] has as its system Plasmodium falciparum. The series is described as follows: Antimalarial activity against CQ-resistant Plasmodium falciparum W2 infected in human erythrocytes after 96 hrs by SYBR Green1 dye based fluorescence assay. Type of series: functional, organism-based. The note with it: W2, 96 h.
For series [15], the system named is Plasmodium falciparum. The series is described as follows: Antimalarial activity against CQ-sensitive Plasmodium falciparum 3D7 assessed as inhibition of parasite growth. Type of series: functional, organism-based.
Series [16] has as its system Plasmodium falciparum. The series is described as follows: Antimalarial activity against CQ-resistant Plasmodium falciparum NF54-R assessed as inhibition of parasite growth. The class given is functional, organism-based.
For series [17], the system named is Heme. The series is described as follows: Binding affinity to monomeric heme at 100 nM to 4.5 uM after 24 hrs by UV-Visible Spectroscopic analysis.
Series [18] concerns Plasmodium falciparum. The series is described as follows: Binding affinity to Gyrase in Plasmodium falciparum assessed as accumulation of single-stranded DNA binding protein at 25 nM after 96 hrs by Western blot analysis. (In general: Immunoblotting shows a protein as a band on a membrane.)
The next series relates to Escherichia coli. The series is described as follows: Toxicity in Escherichia coli DH10B assessed as growth inhibition at 500 nM to 1 uM after 6 hrs. Type of series: organism-based, str. K-12 substr. DH10B. The note with it: in vivo, 0.5 µM.
In series [19] the test system is Plasmodium falciparum. Kind of series: Antimalarial activity against Plasmodium falciparum infected in human erythrocytes assessed as parasitemia at 1 to 10 nM after 48 hrs by SYBR Green1 dye based fluorescence assay. The class given is functional, organism-based.
For series [20], the system named is Plasmodium falciparum. Kind of series: Antimalarial activity against Plasmodium falciparum infected in human erythrocytes assessed as parasitemia at 1 to 10 nM after 96 hrs by SYBR Green1 dye based fluorescence assay. The class given is functional, organism-based.
Series [21] concerns Plasmodium falciparum. The series is described as follows: Antiplasmodial activity against Plasmodium falciparum infected in human erythrocytes assessed as reduction in hemozoin size at 50 to 100 nM after 48 hrs by giemsa staining based light microscopic analysis. Type of series: functional, organism-based.
Series [22] deals with Plasmodium falciparum. Kind of series: Antimalarial activity against synchronized ring stage of Plasmodium falciparum infected in human erythrocytes at 50 to 100 nM. Type of series: functional, organism-based.
Series [23] relates to Plasmodium falciparum. Kind of series: Antimalarial activity against synchronized schizont stage of Plasmodium falciparum infected in human erythrocytes at 50 to 100 nM. Type of series: functional, organism-based.
Another series concerns NIH3T3. The series is described as follows: Cytotoxicity against mouse NIH/3T3 cells up to 10 uM after 72 hrs by MTT assay. The class given is cell-based. The note with it: nih3t3, 72 h. Background: Tetrazolium dyes change colour on reduction, which living cells bring about.
Series [24] deals with Plasmodium falciparum. Kind of series: Antimalarial activity against Plasmodium falciparum infected in human erythrocytes assessed as parasitemia at 1 to 15 uM after 48 hrs by SYBR Green1 dye based fluorescence assay. The class given is functional, organism-based.
In series [25] the test system is Plasmodium falciparum. The series is described as follows: Binding affinity to Gyrase in Plasmodium falciparum assessed as accumulation of single-stranded DNA binding protein at 15 uM after 96 hrs by Western blot analysis.
Series [26] deals with Plasmodium falciparum. Kind of series: Antimalarial activity against Plasmodium falciparum infected in human erythrocytes assessed as parasitemia at 1 to 15 uM after 96 hrs by SYBR Green1 dye based fluorescence assay. The class given is functional, organism-based.
Series [27] has as its system Heme. Kind of series: Binding affinity to monomeric heme after 24 hrs by UV-Visible Spectroscopic analysis.
The subject of series [28] is Plasmodium falciparum. The series is described as follows: Antiplasmodial activity against Plasmodium falciparum infected in human erythrocytes assessed as reduction in hemozoin size at 30 nM after 48 hrs by giemsa staining based light microscopic analysis. The class given is functional, organism-based.

The source made the active and inactive calls. The calls are words filed in the database; no cut-off is given here.

For the molecule `CCOC(=O)c1cn(C2CC2)c2cc(N3CCN(S(=O)(=O)c4ccc(C(F)(F)F)cc4)CC3)c(F)cc2c1=O`, the Activity entry in the series with Erythrocyte [1], with Erythrocyte [8] and in the series with Erythrocyte [11] was “Non-Toxic” each time. Further, in series [2], the logP came out at 4.29. The “Ratio IC50” value in the series with Plasmodium falciparum [3] is recorded as 7; with Plasmodium falciparum [5] it was 1000; in the series on Plasmodium falciparum [9], 200 - 700; with Plasmodium falciparum [10], 3.88; in the series on Plasmodium falciparum [12] it was 200 - 700; with Plasmodium falciparum [13], 1000. Moreover, the half-inhibitory concentration (IC50) in the series with Plasmodium falciparum [4] turned out to be 37.6 nM; in the series on Plasmodium falciparum [6], 146 nM; in the series on Plasmodium falciparum [7] it was 14.8 nM; in the series with Plasmodium falciparum [14], 33.4 nM.
Consider `COc1c(N2C[C@@H]3CCCN[C@@H]3C2)c(F)cc2c(=O)c(C(=O)O)cn(C3CC3)c12` [MOXIFLOXACIN], for which the IC50 in the series on Plasmodium falciparum [15] and in the series on Plasmodium falciparum [16] was over 10000 nM each time.
For the molecule `CCOC(=O)c1cn(C2CC2)c2cc(N3CCN(c4c5ccc(Cl)cc5nc5ccc(OC)cc45)CC3)c(F)cc2c1=O`, the Activity entry with Erythrocyte [1], in the series with Erythrocyte [8] and with Erythrocyte [11] was “Non-Toxic” in each case. This molecule also showed a logP in series [2] of 6.31. The figures for the IC50 in the series on Plasmodium falciparum [4] and in the series with Plasmodium falciparum [7] were 359 nM and 311 nM, respectively.
On to `CCOC(=O)c1cn(C2CC2)c2cc(N3CCN(c4ccnc5cc(Cl)ccc45)CC3)c(F)cc2c1=O`, for which the outcome in the series on Heme [17], in the series with Plasmodium falciparum [18] and in the series with Plasmodium falciparum [21] was inactive. In addition, the Activity result in the series on Erythrocyte [1], with Escherichia coli, in the series on Erythrocyte [8], with Erythrocyte [11] and in the series with NIH3T3 was “Non-Toxic” in each case. In series [2], this molecule had a logP of 5.02. Further, the “Ratio IC50” value is given as 3 in the series on Plasmodium falciparum [3]; 1000 in the series on Plasmodium falciparum [5]; 200 - 700 in the series with Plasmodium falciparum [9]; 2.47 with Plasmodium falciparum [10]; 200 - 700 in the series on Plasmodium falciparum [12]; 1000 in the series with Plasmodium falciparum [13]. In addition, the IC50 was determined as 25.5 nM in the series with Plasmodium falciparum [4], 63.2 nM with Plasmodium falciparum [6], 13.5 nM with Plasmodium falciparum [7] and 30.6 nM with Plasmodium falciparum [14]. In addition, the outcome in the series with Plasmodium falciparum [19], in the series with Plasmodium falciparum [20], in the series with Plasmodium falciparum [22] and with Plasmodium falciparum [23] was Active.
Consider `CCOC(=O)c1cn(C2CC2)c2cc(N3CCN(C(=O)/C=C/c4ccccc4)CC3)c(F)cc2c1=O`, for which the Activity entry in the series on Erythrocyte [1], in the series with Erythrocyte [8] and in the series on Erythrocyte [11] was “Non-Toxic” each time. In series [2], the logP amounted to 3.81. Further, the IC50 in the series on Plasmodium falciparum [4] was 9110 nM; in the series with Plasmodium falciparum [7], 4790 nM.
As to `Cc1c(F)c(N2CCNC(C)C2)cc2c1c(=O)c(C(=O)O)cn2C1CC1` (stereo not given) [GREPAFLOXACIN], the IC50 in the series on Plasmodium falciparum [15] and in the series with Plasmodium falciparum [16] was over 10000 nM in each case.
Consider `COc1c(N2CCNC(C)C2)c(F)cc2c(=O)c(C(=O)O)cn(C3CC3)c12` (stereo not given) [GATIFLOXACIN], for which the IC50 with Plasmodium falciparum [15] and with Plasmodium falciparum [16] was over 10000 nM in each case.
With `O=C(O)c1cn(C2CC2)c2cc(N3CCNCC3)c(F)cc2c1=O` [CIPROFLOXACIN], the outcome in the series on Heme [17] and in the series on Plasmodium falciparum [24] was inactive. Moreover, the IC50 was determined as 45400 nM in the series with Plasmodium falciparum [4], 37100 nM in the series on Plasmodium falciparum [6], 26300 nM in the series on Plasmodium falciparum [7] and 22800 nM with Plasmodium falciparum [14]. Also, the outcome with Plasmodium falciparum [25] and in the series on Plasmodium falciparum [26] was Active.
As for `CCN(CC)CCCC(C)Nc1ccnc2cc(Cl)ccc12` (stereo not given), the Activity result in the series with Heme [27] was “Dose-dependent effect”. Also, in the series with Plasmodium falciparum [28], the outcome was Active.
